Measured values taken from patent publication US20090098066A1, “Substituted bicyclo [2.2.2] oct/5-ene compounds and their use as cooling agents” (priority 2005, published 2009).

Legend:
panelists = experiment: Cooling intensity: panelists taste aqueous solutions versus menthol at 2 ppm; type: in vivo; conditions: aqueous solution with cooling intensity similar or slightly higher than a solution of menthol at 2 ppm
panelist [1] = experiment: Application in chewing gum, gum stick chewed by a panelist; type: in vivo; conditions: chewing gum with 0.10 g compound in about 100 g gum, with peppermint oil; chewed for 15 minutes
Description: All the ingredients are mixed in the pre-warmed gum base. The mixture is spread in thick films, cooled down and cut in sticks. A gum stick is chewed by a panelist for 15 minutes. […] No off-note was observed.

panelist [2] = experiment: Application in beverage (clear lemon/lime soda), tasted by a panelist; type: in vivo; conditions: 1.2 mL of a 0.5% ethanolic solution in a 355 mL can of clear lemon/lime soda
Description: 1.2 mL of a 0.5% ethanolic solution of 1-isopropyl-4-methyl-bicyclo[2.2.2]oct-5-ene-2,3-dicarbinol is added in a 355 mL (12 fl oz.) can of clear lemon/lime soda.

panelist [3] = conditions: general statement, not tested here; cited from earlier work

Row | Molecule | Concentration (panelists) [ppm] | cooling sensation (panelist [1]) | cooling sensation (panelist [2]) | throat burning (panelist [2]) | throat burning (stated as known characteristic) (panelist [3])
1 | CC(C)C12C=CC(C)(CC1)C(CO)C2CO (stereo not drawn) [Example 1, 1-Isopropyl-4-methyl-bicyclo[2.2.2]oct-5-ene-2,3-dicarbinol] | 2 | immediate cooling sensation is felt in all areas of the mouth | immediate cooling sensation in the mouth | none of the throat burning | 
2 | 1-Isopropyl-4-methyl-bicyclo[2.2.2]oct-5-ene-2-carboxylic acid and 1-isopropyl-4-methyl-bicyclo[2.2.2]oct-5-ene-3-carboxylic acid [Example 2] | 2 |  |  |  | 
3 | CCNC(=O)C1CC2(C)C=CC1(C(C)C)CC2 (stereo not drawn) [Example 4, N-ethyl 1-Isopropyl-4-methyl-bicyclo[2.2.2]oct-5-ene-2-carboxamide] | 3 |  |  |  | 
4 | CCNC(=O)C1CC(C)CCC1C(C)C (stereo not drawn) [WS-3, N-ethyl p-menthanecarboxamide, reference compound] | 1.5 |  |  |  | throat burning that is characteristic
5 | CC1=CC2C(O)CC1CC2C(C)C (stereo not drawn) [Example 6, 7-isopropyl-5-methyl-bicyclo[2.2.2]oct-5-en-2-ol] | 5 |  |  |  | 
